{"source": "paper PMC10382584", "about": "“Macrocyclization of linear molecules by deep learning to facilitate macrocyclic drug candidates discovery” (Nature Communications, 2023);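 also: KINOMEscan kinase panel binding assay, signal normalized between DMSO as 100% and a positive control compound as 0%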", "experiment_in_all_cases": "biochemical", "parameters_in_all_cases": "DiscoveRx KINOMEscan competition binding, percent of DMSO control signal at 100 nM", "conditions_in_all_cases": "read-out: Fig. 4a / Percent Control / Compound 1; percent of DMSO control, competition binding", "key": {"CAMK2B": {"biological_target": "CAMK2B (Homo sapiens, UniProt Q13554)"}, "CDKL5": {"biological_target": "CDKL5 (Homo sapiens, UniProt O76039)"}, "CSNK1G1": {"biological_target": "CSNK1G1 (Homo sapiens, UniProt Q9HCP0)", "sequence (Q9HCP0 whole entry)": "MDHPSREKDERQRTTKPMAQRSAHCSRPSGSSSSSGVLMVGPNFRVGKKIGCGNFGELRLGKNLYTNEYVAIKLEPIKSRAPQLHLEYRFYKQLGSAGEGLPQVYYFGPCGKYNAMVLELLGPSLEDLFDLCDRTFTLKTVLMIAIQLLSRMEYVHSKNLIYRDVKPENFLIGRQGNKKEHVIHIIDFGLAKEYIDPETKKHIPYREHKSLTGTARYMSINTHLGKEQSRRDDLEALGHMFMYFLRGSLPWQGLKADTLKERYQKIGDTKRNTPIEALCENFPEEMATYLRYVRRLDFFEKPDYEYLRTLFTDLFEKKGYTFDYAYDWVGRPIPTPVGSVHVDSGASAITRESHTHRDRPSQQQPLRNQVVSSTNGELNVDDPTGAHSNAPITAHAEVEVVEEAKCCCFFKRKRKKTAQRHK"}, "CTK": {"biological_target": "T1, CTK (Homo sapiens, UniProt P42679)", "T1 construct": "gene MATK"}, "EPHB3": {"biological_target": "EPHB3 (Homo sapiens, UniProt P54753)"}, "GAK": {"biological_target": "GAK (Homo sapiens, UniProt O14976)"}, "HIPK3": {"biological_target": "HIPK3 (Homo sapiens, UniProt Q9H422)", "sequence (Q9H422 whole entry)": "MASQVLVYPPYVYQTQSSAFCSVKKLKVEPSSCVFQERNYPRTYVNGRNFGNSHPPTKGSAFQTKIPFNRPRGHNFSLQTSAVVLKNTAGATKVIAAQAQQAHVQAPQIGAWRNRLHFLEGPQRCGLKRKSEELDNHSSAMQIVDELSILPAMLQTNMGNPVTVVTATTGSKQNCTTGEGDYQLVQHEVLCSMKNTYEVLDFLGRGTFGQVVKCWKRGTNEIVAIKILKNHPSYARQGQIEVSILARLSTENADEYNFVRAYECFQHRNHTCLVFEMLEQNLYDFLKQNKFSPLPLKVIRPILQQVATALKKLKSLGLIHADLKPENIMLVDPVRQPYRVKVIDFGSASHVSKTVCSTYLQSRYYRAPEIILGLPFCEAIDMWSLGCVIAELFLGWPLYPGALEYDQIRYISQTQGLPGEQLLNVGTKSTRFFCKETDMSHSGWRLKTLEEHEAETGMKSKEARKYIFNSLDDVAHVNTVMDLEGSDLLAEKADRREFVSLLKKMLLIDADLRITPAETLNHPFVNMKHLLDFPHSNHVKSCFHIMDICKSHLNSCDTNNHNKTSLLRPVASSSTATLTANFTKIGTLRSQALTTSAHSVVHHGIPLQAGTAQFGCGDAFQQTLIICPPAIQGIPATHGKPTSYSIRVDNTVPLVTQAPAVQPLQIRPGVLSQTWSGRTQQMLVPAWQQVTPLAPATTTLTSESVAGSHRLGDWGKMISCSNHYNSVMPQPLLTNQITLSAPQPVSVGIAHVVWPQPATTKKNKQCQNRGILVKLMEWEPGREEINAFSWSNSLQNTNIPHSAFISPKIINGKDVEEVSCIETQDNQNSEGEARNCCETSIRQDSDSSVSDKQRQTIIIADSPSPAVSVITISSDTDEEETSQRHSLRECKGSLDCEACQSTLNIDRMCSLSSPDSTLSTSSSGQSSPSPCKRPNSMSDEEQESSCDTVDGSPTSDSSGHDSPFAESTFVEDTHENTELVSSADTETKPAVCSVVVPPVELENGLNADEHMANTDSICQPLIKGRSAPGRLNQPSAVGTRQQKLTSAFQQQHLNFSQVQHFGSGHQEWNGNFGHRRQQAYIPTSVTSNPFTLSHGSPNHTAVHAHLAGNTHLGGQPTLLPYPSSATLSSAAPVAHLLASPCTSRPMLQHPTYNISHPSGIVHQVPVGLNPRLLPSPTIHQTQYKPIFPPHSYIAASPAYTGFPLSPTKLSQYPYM"}, "INSR": {"biological_target": "INSR (Homo sapiens, UniProt P06213)"}, "IRAK1": {"biological_target": "IRAK1 (Homo sapiens, UniProt P51617)"}, "JNK3": {"biological_target": "T2, JNK3 (Homo sapiens, UniProt P53779)", "T2 construct": "gene MAPK10", "T2 sequence (P53779 whole entry)": "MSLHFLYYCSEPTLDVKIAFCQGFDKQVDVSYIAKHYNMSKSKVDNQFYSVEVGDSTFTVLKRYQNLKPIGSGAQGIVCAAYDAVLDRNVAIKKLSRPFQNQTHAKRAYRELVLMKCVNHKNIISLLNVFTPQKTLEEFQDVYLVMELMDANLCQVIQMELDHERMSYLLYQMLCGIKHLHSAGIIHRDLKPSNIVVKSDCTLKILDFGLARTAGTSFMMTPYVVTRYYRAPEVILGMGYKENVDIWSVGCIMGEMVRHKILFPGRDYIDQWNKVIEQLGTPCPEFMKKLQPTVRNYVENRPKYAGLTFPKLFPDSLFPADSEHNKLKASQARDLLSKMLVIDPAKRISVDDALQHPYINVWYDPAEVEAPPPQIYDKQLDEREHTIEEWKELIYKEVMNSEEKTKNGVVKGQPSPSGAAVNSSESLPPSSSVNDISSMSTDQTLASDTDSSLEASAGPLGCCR"}, "MAP3K15": {"biological_target": "MAP3K15 (Homo sapiens, UniProt Q6ZN16)"}, "MAST1": {"biological_target": "MAST1 (Homo sapiens, UniProt Q9Y2H9)"}, "MINK": {"biological_target": "T3, MINK (Homo sapiens, UniProt Q8N4C8)", "T3 construct": "gene MINK1"}, "MST1": {"biological_target": "T4, MST1 (Homo sapiens, UniProt Q13043)", "T4 construct": "gene STK4"}, "MTOR": {"biological_target": "MTOR (Homo sapiens, UniProt P42345)"}, "PIM2": {"biological_target": "PIM2 (Homo sapiens, UniProt Q9P1W9)"}, "PLK3": {"biological_target": "PLK3 (Homo sapiens, UniProt Q9H4B4)", "sequence (Q9H4B4 whole entry)": "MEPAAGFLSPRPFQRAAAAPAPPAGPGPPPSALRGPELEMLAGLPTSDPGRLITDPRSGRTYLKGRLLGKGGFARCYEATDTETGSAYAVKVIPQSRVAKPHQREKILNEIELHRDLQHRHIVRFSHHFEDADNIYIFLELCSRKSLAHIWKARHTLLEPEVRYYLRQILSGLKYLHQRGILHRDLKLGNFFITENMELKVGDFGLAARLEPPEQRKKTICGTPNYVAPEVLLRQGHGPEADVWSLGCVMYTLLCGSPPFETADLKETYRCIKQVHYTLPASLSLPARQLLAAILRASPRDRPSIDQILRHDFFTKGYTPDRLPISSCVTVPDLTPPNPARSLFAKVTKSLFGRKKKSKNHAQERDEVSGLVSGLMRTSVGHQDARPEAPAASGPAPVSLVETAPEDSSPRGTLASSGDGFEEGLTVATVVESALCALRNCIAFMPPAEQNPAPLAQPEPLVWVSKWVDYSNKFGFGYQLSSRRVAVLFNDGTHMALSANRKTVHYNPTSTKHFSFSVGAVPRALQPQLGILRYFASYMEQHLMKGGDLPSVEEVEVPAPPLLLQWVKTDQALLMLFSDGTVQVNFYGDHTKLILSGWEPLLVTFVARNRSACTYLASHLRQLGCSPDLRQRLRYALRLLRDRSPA"}, "PRKCE": {"biological_target": "PRKCE (Homo sapiens, UniProt Q02156)", "sequence (Q02156 whole entry)": "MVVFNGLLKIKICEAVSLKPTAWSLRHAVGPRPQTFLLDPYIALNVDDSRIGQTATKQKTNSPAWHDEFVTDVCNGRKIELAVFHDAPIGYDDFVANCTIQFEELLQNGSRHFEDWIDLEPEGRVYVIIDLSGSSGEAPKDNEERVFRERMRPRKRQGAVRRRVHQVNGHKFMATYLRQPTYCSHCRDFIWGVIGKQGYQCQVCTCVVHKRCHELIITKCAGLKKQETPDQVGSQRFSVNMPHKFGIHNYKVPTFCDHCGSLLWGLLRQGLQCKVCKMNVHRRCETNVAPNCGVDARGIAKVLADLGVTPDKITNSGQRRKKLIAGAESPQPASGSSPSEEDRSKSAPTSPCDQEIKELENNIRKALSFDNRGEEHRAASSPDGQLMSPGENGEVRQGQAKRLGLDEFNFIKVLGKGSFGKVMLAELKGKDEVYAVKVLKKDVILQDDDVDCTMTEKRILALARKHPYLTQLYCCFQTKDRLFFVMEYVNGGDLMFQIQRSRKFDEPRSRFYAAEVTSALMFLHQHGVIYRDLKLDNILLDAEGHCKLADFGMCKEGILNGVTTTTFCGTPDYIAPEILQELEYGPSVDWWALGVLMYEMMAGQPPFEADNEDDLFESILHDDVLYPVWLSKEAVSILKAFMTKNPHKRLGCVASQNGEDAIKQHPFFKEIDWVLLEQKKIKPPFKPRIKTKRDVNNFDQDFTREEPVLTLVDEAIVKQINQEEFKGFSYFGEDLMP"}, "RIPK4": {"biological_target": "RIPK4 (Homo sapiens, UniProt P57078)"}, "[1]": {"biological_target": "T5, RSK2(Kin.Dom.1-N-terminal) (Homo sapiens, UniProt P51812)", "T5 construct": "gene RPS6KA3; Kin.Dom.1-N-terminal"}, "TAOK1": {"biological_target": "TAOK1 (Homo sapiens, UniProt Q7L7X3)", "sequence (Q7L7X3 whole entry)": "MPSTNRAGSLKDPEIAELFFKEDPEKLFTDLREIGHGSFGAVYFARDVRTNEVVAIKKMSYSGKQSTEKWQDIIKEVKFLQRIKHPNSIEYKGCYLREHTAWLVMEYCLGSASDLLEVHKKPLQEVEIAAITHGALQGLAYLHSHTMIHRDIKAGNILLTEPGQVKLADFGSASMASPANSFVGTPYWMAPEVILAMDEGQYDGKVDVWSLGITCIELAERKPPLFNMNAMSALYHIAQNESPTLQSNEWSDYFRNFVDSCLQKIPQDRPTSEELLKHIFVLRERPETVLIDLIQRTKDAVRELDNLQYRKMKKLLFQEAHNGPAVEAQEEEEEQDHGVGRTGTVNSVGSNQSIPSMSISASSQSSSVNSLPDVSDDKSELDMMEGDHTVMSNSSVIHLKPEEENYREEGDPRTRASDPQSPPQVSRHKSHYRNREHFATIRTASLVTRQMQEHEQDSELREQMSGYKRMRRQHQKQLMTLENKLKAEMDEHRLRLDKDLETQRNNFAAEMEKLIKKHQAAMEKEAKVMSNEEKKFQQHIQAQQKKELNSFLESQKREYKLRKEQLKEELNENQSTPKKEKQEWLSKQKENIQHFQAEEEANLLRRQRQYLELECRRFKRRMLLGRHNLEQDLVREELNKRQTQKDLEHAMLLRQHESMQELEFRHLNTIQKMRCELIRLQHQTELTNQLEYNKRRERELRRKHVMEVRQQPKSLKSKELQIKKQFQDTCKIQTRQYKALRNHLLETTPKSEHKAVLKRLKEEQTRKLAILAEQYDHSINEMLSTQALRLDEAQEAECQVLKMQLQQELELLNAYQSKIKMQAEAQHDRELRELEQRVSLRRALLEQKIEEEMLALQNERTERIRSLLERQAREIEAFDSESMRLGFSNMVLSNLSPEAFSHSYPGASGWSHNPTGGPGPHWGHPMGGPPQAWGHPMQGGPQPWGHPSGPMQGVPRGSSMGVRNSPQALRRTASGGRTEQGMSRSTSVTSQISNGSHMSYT"}, "TSSK3": {"biological_target": "TSSK3 (Homo sapiens, UniProt Q96PN8)"}, "TXK": {"biological_target": "TXK (Homo sapiens, UniProt P42681)"}, "WNK3": {"biological_target": "WNK3 (Homo sapiens, UniProt Q9BYP7)"}, "YANK2": {"biological_target": "T6, YANK2 (Homo sapiens, UniProt Q9NY57)", "T6 construct": "gene STK32B", "T6 sequence (Q9NY57 whole entry)": "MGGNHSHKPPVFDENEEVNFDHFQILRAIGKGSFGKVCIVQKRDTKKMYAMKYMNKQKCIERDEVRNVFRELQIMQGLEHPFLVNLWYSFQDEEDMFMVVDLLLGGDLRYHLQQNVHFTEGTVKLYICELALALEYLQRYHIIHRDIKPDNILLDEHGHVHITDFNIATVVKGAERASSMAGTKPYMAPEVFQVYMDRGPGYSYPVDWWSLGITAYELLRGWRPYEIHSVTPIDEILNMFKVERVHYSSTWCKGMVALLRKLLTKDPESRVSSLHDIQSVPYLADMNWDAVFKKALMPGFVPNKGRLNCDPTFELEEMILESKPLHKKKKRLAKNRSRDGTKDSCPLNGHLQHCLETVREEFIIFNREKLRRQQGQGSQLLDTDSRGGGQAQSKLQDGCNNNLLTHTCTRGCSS"}}}
{"compound": "Cc1cnc2nc1Nc1cccc(c1)COCc1cc(ccc1OCCN1CCCC1)N2", "note": "[Compound 1]", "values": [{"measurement": "remaining binding at 0.1 µM", "setting": "CAMK2B", "result": 94, "unit": "%"}, {"measurement": "remaining binding at 0.1 µM", "setting": "CDKL5", "result": 100, "unit": "%"}, {"measurement": "remaining binding at 0.1 µM", "setting": "CSNK1G1", "result": 91, "unit": "%"}, {"measurement": "remaining binding at 0.1 µM", "setting": "CTK", "result": 97, "unit": "%"}, {"measurement": "remaining binding at 0.1 µM", "setting": "EPHB3", "result": 100, "unit": "%"}, {"measurement": "remaining binding at 0.1 µM", "setting": "GAK", "result": 36, "unit": "%"}, {"measurement": "remaining binding at 0.1 µM", "setting": "HIPK3", "result": 87, "unit": "%"}, {"measurement": "remaining binding at 0.1 µM", "setting": "INSR", "result": 84, "unit": "%"}, {"measurement": "remaining binding at 0.1 µM", "setting": "IRAK1", "result": 31, "unit": "%"}, {"measurement": "remaining binding at 0.1 µM", "setting": "JNK3", "result": 43, "unit": "%"}, {"measurement": "remaining binding at 0.1 µM", "setting": "MAP3K15", "result": 68, "unit": "%"}, {"measurement": "remaining binding at 0.1 µM", "setting": "MAST1", "result": 94, "unit": "%"}, {"measurement": "remaining binding at 0.1 µM", "setting": "MINK", "result": 82, "unit": "%"}, {"measurement": "remaining binding at 0.1 µM", "setting": "MST1", "result": 100, "unit": "%"}, {"measurement": "remaining binding at 0.1 µM", "setting": "MTOR", "result": 82, "unit": "%"}, {"measurement": "remaining binding at 0.1 µM", "setting": "PIM2", "result": 100, "unit": "%"}, {"measurement": "remaining binding at 0.1 µM", "setting": "PLK3", "result": 99, "unit": "%"}, {"measurement": "remaining binding at 0.1 µM", "setting": "PRKCE", "result": 98, "unit": "%"}, {"measurement": "remaining binding at 0.1 µM", "setting": "RIPK4", "result": 65, "unit": "%"}, {"measurement": "remaining binding at 0.1 µM", "setting": "[1]", "result": 56, "unit": "%"}, {"measurement": "remaining binding at 0.1 µM", "setting": "TAOK1", "result": 72, "unit": "%"}, {"measurement": "remaining binding at 0.1 µM", "setting": "TSSK3", "result": 78, "unit": "%"}, {"measurement": "remaining binding at 0.1 µM", "setting": "TXK", "result": 94, "unit": "%"}, {"measurement": "remaining binding at 0.1 µM", "setting": "WNK3", "result": 95, "unit": "%"}, {"measurement": "remaining binding at 0.1 µM", "setting": "YANK2", "result": 95, "unit": "%"}]}
